Reference: patent US10912821B2, “Diketopiperazine salts for drug delivery and related methods” (MannKind Corporation, priority 2004, dated 2021)
“And” between values parts separate entries of the source, which are not always exact repeats. Equal entries are not always repeated.

Tests used:
[1] = tested on: cell membranes or tight junctions; type: cell-based
Excerpt: Diketopiperazine facilitate transcellular transport of biologically active agents across biological tissues however they are not penetration enhancers. Penetration enhancers are compounds that improve drug movement across biological tissues by disrupting cell membranes. Examples of penetration enhancers are surfactants and soaps. […] Diketopiperazine/insulin powder compositions are soluble at the physiological pH of the lung surface and dissolve rapidly after inhalation. Once dissolved, the DKP facilitates passive transcellular transport of the insulin.

[2] = Laser diffraction particle size analysis; type: physicochemical
Excerpt: The microparticles described in Examples 6 and 7 were subjected to laser diffraction particle size analysis (SympatecGmbH, Germany) (FIGS. 1A and 1B).

Fine Particle Fraction (<5.8 μm) [2]	Particle Size 0.5-5 μm [2]	Particle Size <3 μm [2]	VMD (volume median diameter) [2]	X10 [2]	X16 [2]	X50 [2]	X84 [2]	X90 [2]	X99 [2]	SMILES	cell viability [1]	disruption of cell membranes or tight junctions [1]
										O=C(O)/C=C/C(=O)NCCCCC1NC(=O)C(CCCCNC(=O)/C=C/C(=O)O)NC1=O (stereo not drawn) [FDKP, 3,6-di(fumaryl-4-aminobutyl)-2,5-diketopiperazine]	does not compromise cell viability	does not disrupt cell membranes or tight junctions
91.46% and 86.01%	87.91% and 80.13%	53.39% and 47.37%	3.70 μm and 3.76 μm	1.60 μm and 1.55 μm	1.44 μm and 1.36 μm	2.89 μm and 3.11 μm	4.60 μm and 5.53 μm	5.47 μm and 6.64 μm	19.20 μm and 14.04 μm	O=C([O-])C=CC(=O)NCCCCC1NC(=O)C(CCCCNC(=O)C=CC(=O)[O-])NC1=O.[Na+].[Na+] (stereo not drawn) [Preparation A]		
